pEC50: −log10 of the molar value.
Target: T1, human FXR (NR1H4) (Homo sapiens, UniProt Q96RI1)
T1 construct: host or cells: CHO (Chinese hamster ovary) reporter cells
T1 sequence (Q96RI1 1-486): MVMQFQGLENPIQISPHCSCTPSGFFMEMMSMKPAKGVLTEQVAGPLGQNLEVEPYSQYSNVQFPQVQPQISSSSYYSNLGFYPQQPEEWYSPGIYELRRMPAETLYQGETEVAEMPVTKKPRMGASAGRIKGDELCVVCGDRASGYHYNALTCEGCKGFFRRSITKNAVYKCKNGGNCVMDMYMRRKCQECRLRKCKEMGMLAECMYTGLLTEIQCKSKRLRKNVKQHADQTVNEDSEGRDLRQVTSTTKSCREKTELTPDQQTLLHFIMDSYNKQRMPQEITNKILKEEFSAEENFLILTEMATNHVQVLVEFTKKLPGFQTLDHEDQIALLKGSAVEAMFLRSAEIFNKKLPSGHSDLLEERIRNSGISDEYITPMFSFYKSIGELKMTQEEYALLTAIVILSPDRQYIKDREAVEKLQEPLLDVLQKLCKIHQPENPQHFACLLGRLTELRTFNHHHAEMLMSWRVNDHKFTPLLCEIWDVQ
Assay: Human FXR (NR1H4) Assay: Gal4 promoter driven luciferase reporter transactivation in CHO cells (Indigo Bioscience kit IB00601); for Efficacy (%): efficacy normalized to CDCA set as 100%
Type: cell-based
Conditions: for Emax: CHO, read-out: Efficacy (%); for pEC50: Human FXR (NR1H4) reporter assay, potency ranges
Excerpt: Human FXR (NR1H4) Assay Determination of a ligand mediated Gal4 promoter driven transactivation to quantify ligand binding mediated activation of FXR. FXR Reporter Assay kit purchased from Indigo Bioscience (Catalogue number: IB00601) to determine the potency and efficacy of compound developed by Enanta that can induce FXR activation. The principle application of this reporter assay system is to quantify functional activity of human FXR. The assay utilizes non-human mammalian cells, CHO (Chinese hamster ovary) cells engineered to express human NR1H4 protein (referred to as FXR). Reporter cells also incorporate the cDNA encoding beetle luciferase which catalyzes the substrates and yields photon emission. Luminescence intensity of the reaction is quantified using a plate-reading luminometer, Envision. Reporter Cells include the luciferase reporter gene functionally linked to an FXR responsive promoter. Thus, quantifying changes in luciferase expression in the treated reporter cells provides a sensitive surrogate measure of the changes in FXR activity. […] The assay is according to the manufacturer's instructions. In brief, the assay was performed in white, 96 well plates using final volume of 100 ul containing cells with different doses of compounds. Retrieve Reporter Cells from −80° C. storage. Perform a rapid thaw of the frozen cells by transferring a 10 ml volume of 37° C. cell recovery medium into the tube of frozen cells. Recap the tube of Reporter Cells and immediately place it in a 37° C. water bath for 5-10 minutes. Retrieve the tube of Reporter Cell Suspension from the water bath. Sanitize the outside surface of the tube with a 70% alcohol swab, and then transfer it into the cell culture hood. Dispense 90 μl of cell suspension into each well of the 96-well Assay Plate. Transfer the plate into 37° C. incubator, allowing the cells adherent to the bottom of the well. Dilute compounds in Dilution Plate (DP), and administrate to cells at Assay Plate (AP). DMSO content of the samples was kept at 0.2%. Cells were incubated for additional 22 hours before luciferase activities were measured. Thirty minutes before intending to quantify FXR activity, remove Detection Substrate and Detection Buffer from the refrigerator and place them in a low-light area so that they may equilibrate to room temperature. Remove the plate's lid and discard all media contents by ejecting it into an appropriate waste container. Gently tap the inverted plate onto a clean absorbent paper towel to remove residual droplets. Cells will remain tightly adhered to well bottoms. Add 100 ul of luciferase detection reagent to each well of the assay plate. Allow the assay plate to rest at room temperature for at least 5 minutes following the addition of LDR. Set the instrument (Envision) to perform a single 5 second “plate shake” prior to reading the first assay well. Read time may be 0.5 second (500 mSec) per well.

Row | Structure (SMILES) | Emax [%] | pEC50
1 | CN(C)S(=O)(=O)NC(=O)c1ccc2nc(N3C4CCC3CC(NCc3c(-c5c(Cl)cccc5Cl)noc3C3CC3)C4)sc2c1 (single isomer, unassigned) [Example 225] | 126 | > 9.00
2 | CC(C)(C)c1ccc(S(=O)(=O)NC(=O)c2ccc3nc(N4C5CCC4CC(NCc4c(-c6c(Cl)cccc6Cl)noc4C4CC4)C5)sc3c2)cc1 (single isomer, unassigned) [Example 262] | 289 | > 9.00
3 | CCOC(=O)c1ccc2nc(N3[C@@H]4CC[C@H]3C[C@@H](NCc3c(-c5c(Cl)cccc5Cl)noc3C3CC3)C4)sc2c1 [Example 1, ethyl 2-((1R,3R,5S)-3-(((5-cyclopropyl-3-(2,6-dichlorophenyl)isoxazol-4-yl)methyl)amino)-8-azabicyclo[3.2.1]octan-8-yl)benzo[d]thiazole-6-carboxylate] | 74 | < 6.00
4 | O=C(O)c1ccc2nc(N3[C@@H]4CC[C@H]3C[C@@H](NCc3c(-c5c(Cl)cccc5Cl)noc3C3CC3)C4)sc2c1 [Example 2, 2-((1R,3R,5S)-3-(((5-cyclopropyl-3-(2,6-dichlorophenyl)isoxazol-4-yl)methyl)amino)-8-azabicyclo[3.2.1]octan-8-yl)benzo[d]thiazole-6-carboxylic acid] | 244 | 7.00 to 9.00
5 | COC(=O)c1cc(F)c2nc(N3C4CCC3CC(NCc3c(-c5c(Cl)cccc5Cl)noc3C3CC3)C4)sc2c1 (stereo not shown) [Example 3] | 137 | 7.00 to 9.00
6 | O=C(O)c1cc(F)c2nc(N3[C@@H]4CC[C@H]3C[C@@H](NCc3c(-c5c(Cl)cccc5Cl)noc3C3CC3)C4)sc2c1 [Example 4, 2-((1R,3R,5S)-3-(((5-cyclopropyl-3-(2,6-dichlorophenyl)isoxazol-4-yl)methyl)amino)-8-azabicyclo[3.2.1]octan-8-yl)-4-fluorobenzo[d]thiazole-6-carboxylic acid] | 169 | > 9.00
7 | COC(=O)c1cc(OC)c2nc(N3C4CCC3CC(NCc3c(-c5c(Cl)cccc5Cl)noc3C3CC3)C4)sc2c1 (stereo not shown) [Example 5] | 145 | 7.00 to 9.00
8 | COc1cc(C(=O)O)cc2sc(N3C4CCC3CC(NCc3c(-c5c(Cl)cccc5Cl)noc3C3CC3)C4)nc12 (stereo not shown) [Example 6] | 153 | > 9.00
9 | COC(=O)c1cc(C)c2nc(N3C4CCC3CC(NCc3c(-c5c(Cl)cccc5Cl)noc3C3CC3)C4)sc2c1 (stereo not shown) [Example 7] | 37 | 7.00 to 9.00
10 | Cc1cc(C(=O)O)cc2sc(N3C4CCC3CC(NCc3c(-c5c(Cl)cccc5Cl)noc3C3CC3)C4)nc12 (stereo not shown) [Example 8] | 109 | > 9.00
11 | COC(=O)c1ccc2nc(N3C4CCC3CC(NCc3c(-c5c(Cl)cccc5Cl)noc3C3CC3)C4)oc2c1 (stereo not shown) [Example 19] | 78 | 6.00 to 7.00
12 | O=C(O)c1ccc2nc(N3C4CCC3CC(NCc3c(-c5c(Cl)cccc5Cl)noc3C3CC3)C4)oc2c1 (stereo not shown) [Example 20] | 56 | 7.00 to 9.00
13 | COC(=O)c1ccc2cc(N3[C@@H]4CC[C@H]3C[C@@H](NCc3c(-c5c(Cl)cccc5Cl)noc3C3CC3)C4)ccc2c1 [Example 49, methyl 6-((1R,3R,5S)-3-(((5-cyclopropyl-3-(2,6-dichlorophenyl)isoxazol-4-yl)methyl)amino)-8-azabicyclo[3.2.1]octan-8-yl)-2-naphthoate] | 135 | 7.00 to 9.00
14 | O=C(O)c1ccc2cc(N3C4CCC3CC(NCc3c(-c5c(Cl)cccc5Cl)noc3C3CC3)C4)ccc2c1 (stereo not shown) [Example 50] | 186 | > 9.00
15 | COC(=O)c1ccc2nc(N3C4CCC3CC(NCc3c(-c5c(Cl)cccc5Cl)noc3C3CC3)C4)cnc2c1 (stereo not shown) [Example 64] | 40 | 7.00 to 9.00
16 | CC(C)(C)OC(=O)CNC(=O)c1cc(F)c2nc(N3C4CCC3CC(NCc3c(-c5c(Cl)cccc5Cl)noc3C3CC3)C4)sc2c1 [Example 95, tert-butyl (2-((1R,3r,5S)-3-(((5-cyclopropyl-3-(2,6-dichlorophenyl)isoxazol-4-yl)methyl)amino)-8-azabicyclo[3.2.1]octan-8-yl)-4-fluorobenzo[d]thiazole-6-carbonyl)glycinate] | 128 | 7.00 to 9.00

Row | Structure (SMILES) | Emax [%] | pEC50
17 | O=C(O)CNC(=O)c1cc(F)c2nc(N3C4CCC3CC(NCc3c(-c5c(Cl)cccc5Cl)noc3C3CC3)C4)sc2c1 (stereo not shown) [Example 96] | 136 | 7.00 to 9.00
18 | O=C(O)c1ccc(N2C3CCC2CC(NCc2c(-c4c(Cl)cccc4Cl)noc2C2CC2)C3)c(F)c1 [Example 122, 4-((1R,3r,5S)-3-(((5-cyclopropyl-3-(2,6-dichlorophenyl)isoxazol-4-yl)methyl)amino)-8-azabicyclo[3.2.1]octan-8-yl)-3-fluorobenzoic acid] | 90 | 7.00 to 9.00
19 | O=C(O)c1ccc(N2C3CCC2CC(NCc2c(-c4c(Cl)cccc4Cl)noc2C2CC2)C3)nc1 (stereo not shown) [Example 125] | 86.5 | 7.00 to 9.00
20 | Fc1cc(-c2nn[nH]n2)ccc1N1C2CCC1CC(NCc1c(-c3c(Cl)cccc3Cl)noc1C1CC1)C2 (stereo not shown) [Example 138] | 155 | > 9.00
21 | CC(C)(C)Oc1ccc(S(=O)(=O)NC(=O)OCc2ccc3nc(N4C5CCC4CC(NCc4c(-c6c(Cl)cccc6Cl)noc4C4CC4)C5)sc3c2)cc1 (stereo not shown) [Example 153] | 113 | 7.00 to 9.00
22 | CCOC(=O)c1ccc2nc(N3[C@@H]4CC[C@H]3C[C@@H](N(C)Cc3c(-c5c(Cl)cccc5Cl)noc3C3CC3)C4)sc2c1 [Example 165, ethyl 2-((1R,3R,5S)-3-(((5-cyclopropyl-3-(2,6-dichlorophenyl)isoxazol-4-yl)methyl)(methyl)amino)-8-azabicyclo[3.2.1]octan-8-yl)benzo[d]thiazole-6-carboxylate] | 236 | 7.00 to 9.00
23 | CCOC(=O)c1ccc2nc(N(C)C3CCC(OCc4c(-c5c(Cl)cccc5Cl)noc4C4CC4)CC3)sc2c1 (stereo not shown) [Example 169] | 38 | < 6.00
24 | CN(c1nc2ccc(C(=O)O)cc2s1)C1CCC(OCc2c(-c3c(Cl)cccc3Cl)noc2C2CC2)CC1 (stereo not shown) [Example 170] | 105 | 6.00 to 7.00
25 | O=C(O)c1ccc2nc(N3CCN(Cc4c(-c5c(Cl)cccc5Cl)noc4C4CC4)CC3)sc2c1 [Example 172] | 257 | 6.00 to 7.00
26 | CCOC(=O)c1ccc2nc(N3CCC(NCc4c(-c5c(Cl)cccc5Cl)noc4C4CC4)CC3)sc2c1 [Example 173] | 116 | < 6.00
27 | O=C(O)c1ccc2nc(N3CCC(NCc4c(-c5c(Cl)cccc5Cl)noc4C4CC4)CC3)sc2c1 [Example 174] | 132 | 7.00 to 9.00
28 | O=C(O)c1ccc2nc(N3C4CCC3CN(Cc3c(-c5c(Cl)cccc5Cl)noc3C3CC3)C4)sc2c1 [Example 176] | 228 | 6.00 to 7.00
29 | O=C(O)c1ccc2nc(N3[C@@H]4CC[C@H]3C[C@H](NCc3c(-c5c(Cl)cccc5Cl)noc3C3CC3)C4)sc2c1 [Example 178] | 108 | < 6.00
30 | COC(=O)c1ccc2nc(N3C4CCC3CC(N(C)Cc3c(-c5c(Cl)cccc5Cl)noc3C3CC3)C4)sc2c1 (stereo not shown) [Example 179] | 148 | 6.00 to 7.00
31 | CCOC(=O)c1ccc2nc(NC3CCN(Cc4c(-c5c(Cl)cccc5Cl)noc4C4CC4)CC3)sc2c1 [Example 183] | 119 | < 6.00
32 | CN(Cc1c(-c2c(Cl)cccc2Cl)noc1C1CC1)C1CCN(c2nc3ccc(C(=O)O)cc3s2)CC1 [Example 186] | 45 | < 6.00

Source: patent US10450306B2, “Isoxazole analogs as FXR agonists and methods of use thereof” (Enanta Pharmaceuticals, Inc., priority 2016, dated 2019)
